From US8426447B2, “Spiro-tricyclic ring compounds as beta-secretase modulators and methods of use” (Amgen Inc., priority 2008, dated 2013)
Blank lines part the entries; values can stand above or below the molecule they belong to.

Legend:
BACE1 [1] = target: T1, BACE1 (Homo sapiens, UniProt P56817); assay: In Vitro Enzymatic BACE FRET (Fluorescence Resonance Energy Transfer) Assay; type: biochemical
How it was run: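 Acetate buffer at pH 4.2 with 10% DMSO and 100 uM genapol hosts the enzymatic reaction, initiated by 50 nM FRET substrate and allowed to proceed one hour. Tris quench to neutral pH precedes the fluorescence measurement.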

BACE1 [2] = target: T1, BACE1; assay: In Vitro BACE Cell-based Assay (HEK cell assay): Aβ40 in conditioned medium of cells stably expressing Amyloid Precursor Protein, sandwich ELISA
How it was run: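 Read-out is time-resolved fluorescence of Aβ40 in supernatant, captured by pAb40 and detected with biotinylated 6E10 plus Streptavidin-Europium. Cells stably expressing APP received compounds for 24 h over 10 concentrations starting at 100 μM or 10 μM, final DMSO 0.1%.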

[3] = Table IV, class symbols, read-out: BACE1 FRET assay
[4] = Table IV, class symbols, read-out: HEK cell assay
[5] = in vitro BACE FRET enzyme assay, IC50 class symbols, read-out: BACE1 FRET assay
[6] = HEK cell-based assay, Aβ40 in conditioned medium, IC50 class symbols, read-out: HEK cell assay
[7] = Table III, IC50's in uM ranges, read-out: BACE1 FRET assay
[8] = Table III, IC50's in uM ranges, read-out: HEK cell assay
[9] = HEK cells, read-out: HEK cell assay
[10] = Table II, read-out: BACE1 FRET assay
[11] = Table II, Aβ40, 24 h incubation, read-out: HEK cell assay

T1 sequence (P56817 46-501, species assumed): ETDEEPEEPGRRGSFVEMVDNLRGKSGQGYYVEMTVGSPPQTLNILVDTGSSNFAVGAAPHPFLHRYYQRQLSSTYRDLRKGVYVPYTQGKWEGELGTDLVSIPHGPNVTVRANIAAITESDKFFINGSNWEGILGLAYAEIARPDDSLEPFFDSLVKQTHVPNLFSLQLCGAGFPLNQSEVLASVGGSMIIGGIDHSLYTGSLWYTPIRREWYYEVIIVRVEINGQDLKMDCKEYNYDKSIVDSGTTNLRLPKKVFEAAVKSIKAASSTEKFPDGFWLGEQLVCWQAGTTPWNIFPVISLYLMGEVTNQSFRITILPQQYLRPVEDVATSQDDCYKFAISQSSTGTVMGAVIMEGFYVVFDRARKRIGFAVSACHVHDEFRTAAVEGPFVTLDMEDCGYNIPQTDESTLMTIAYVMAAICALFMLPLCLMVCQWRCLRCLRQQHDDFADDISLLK

SMILES: CC1(C)C=C(c2cc3c(cn2)Oc2ccc(-c4cccnc4F)cc2[C@@]32COC(N)=N2)CCO1 [compound 435]
- IC50 (BACE1 [1]; BACE1 FRET assay (uM)): < 0.1 µM
- IC50 (BACE1 [2]; HEK cell assay (uM), HEK cells): < 0.1 µM

SMILES: CC(C)N1CC=C(c2ccc3c(c2)[C@]2(COC(N)=N2)c2cc(-c4cncnc4)ccc2O3)CC1 [compound 714]
- IC50 (BACE1 [1]; read-out: BACE1 FRET assay): 0.1 to 1 µM
- IC50 (BACE1 [2]; read-out: HEK cell assay): < 0.1 µM

SMILES: NC1=N[C@]2(CO1)c1cc(-c3cccnc3)ccc1Oc1cnc(C3CC3)cc12 [compound 678]
- IC50 (BACE1 [1]; read-out: BACE1 FRET assay): < 0.1 µM
- IC50 (BACE1 [2]; read-out: HEK cell assay): 0.1 to 1 µM

SMILES: COC1CN(c2cc(F)c3c(c2)[C@]2(COC(N)=N2)c2cc(-c4cccnc4)ccc2O3)C1 [compound 474]
- IC50 (BACE1 [1]; read-out: BACE1 FRET assay): < 0.1 µM
- IC50 (BACE1 [2]; [9]): < 0.1 µM

SMILES: CC(C)(C#N)COc1cnc2c(c1)[C@]1(COC(N)=N1)c1cc(-c3cc(F)ccc3F)ccc1O2 [compound 407]
- IC50 (BACE1 [1]; [5]): < 0.1 µM
- IC50 (BACE1 [2]; [6]): < 0.1 µM

SMILES: CC(C)Cc1cc2c3c(ccc2o1)Oc1ncc(-c2cncnc2)cc1[C@]31COC(N)=N1 [compound 792]
- IC50 (BACE1 [1]; [3]): 0.1 to 1 µM
- IC50 (BACE1 [2]; [4]): 1 to 5 µM

SMILES: NC1=N[C@@]2(CO1)c1cc(-c3cccnc3)ccc1Oc1ccc(-c3ccsc3)cc12 [compound 672]
- IC50 (BACE1 [1]; read-out: BACE1 FRET assay): < 0.1 µM
- IC50 (BACE1 [2]; read-out: HEK cell assay): < 0.1 µM

SMILES: COc1ccc2c(c1)[C@@]1(COC(N)=N1)c1cc(Br)cc(F)c1O2 [compound 406]
- IC50 (BACE1 [1]; [5]): > 5 µM
- IC50 (BACE1 [2]; [6]): > 5 µM

SMILES: COC(=O)/C=C/c1ccc2c(c1)[C@]1(COC(N)=N1)c1cc(-c3cncnc3)ccc1O2 [compound 993]
- IC50 (BACE1 [1]; read-out: BACE1 FRET assay): < 0.1 µM
- IC50 (BACE1 [2]; read-out: HEK cell assay): 0.1 to 1 µM

SMILES: N#Cc1ccc(-c2ccc3c(c2)[C@]2(COC(N)=N2)c2cc(-c4cccnc4)ccc2O3)cc1 [compound 204]
- IC50 (BACE1 [1]; [7]): < 0.1 µM
- IC50 (BACE1 [2]; [8]): < 0.1 µM

SMILES: CC(C)(C)OC(=O)/C=C/c1ccc2c(c1)[C@]1(COC(N)=N1)c1cc(-c3cccnc3)ccc1O2 [compound 995]
- IC50 (BACE1 [1]; read-out: BACE1 FRET assay): 0.1 to 1 µM
- IC50 (BACE1 [2]; read-out: HEK cell assay): 1 to 5 µM

SMILES: NC1=N[C@]2(CO1)c1cc(-c3cccnc3)ccc1Oc1ncccc12 [compound 635]
- IC50 (BACE1 [1]; [3]): 0.1 to 1 µM
- IC50 (BACE1 [2]; [4]): 0.1 to 1 µM

SMILES: CC(C)Oc1ccc(-c2cc3c(cn2)Oc2ccc(-c4cccnc4)cc2[C@@]32COC(N)=N2)cc1 [compound 851]
- IC50 (BACE1 [1]; [3]): < 0.1 µM
- IC50 (BACE1 [2]; [4]): 0.1 to 1 µM

SMILES: CC(C)(C)CCOc1nccc2c1C1(COC(N)=N1)c1cc(-c3cncnc3)ccc1O2 (stereo not shown) [Example 109, 1-(3,3-Dimethylbutoxy)-8-(pyrimidin-5-yl)-5′H-spiro[chromeno[3,2-c]pyridine-10,4′-oxazol]-2′-amine]
- IC50 (BACE1 [1]; [7]): 0.1 to 1 µM
- IC50 (BACE1 [2]; [8]): 0.1 to 1 µM

SMILES: CC1(C)C=C(c2cc(F)c3c(c2)[C@]2(COC(N)=N2)c2cc(-c4cncnc4)ccc2O3)CCO1 [compound 466]
- IC50 (BACE1 [1]; read-out: BACE1 FRET assay): < 0.1 µM
- IC50 (BACE1 [2]; [9]): < 0.1 µM

Next, values leading:

- IC50 (BACE1 [1]; [3]): 1 to 5 µM
- IC50 (BACE1 [2]; [4]): 0.1 to 1 µM
SMILES: CN1CCN(c2ccc3c(c2)[C@@]2(COC(N)=N2)c2cc(OCC(C)(C)C)ccc2O3)CC1 [compound 812]

- IC50 (BACE1 [1]; [3]): < 0.1 µM
- IC50 (BACE1 [2]; [4]): 1 to 5 µM
SMILES: CC(C)(C)COc1ccc2c(c1)[C@]1(COC(N)=N1)c1cc(-c3cccc(S(C)(=O)=O)c3)ccc1O2 [compound 915]

- IC50 (BACE1 [1]; [5]): < 0.1 µM
- IC50 (BACE1 [2]; [6]): < 0.1 µM
SMILES: CC(C)(C)COc1cnc2c(c1)[C@]1(COC(N)=N1)c1cc(-c3cncc(F)c3)ccc1O2 [compound 389]

- IC50 (BACE1 [1]; [7]): < 0.1 µM
- IC50 (BACE1 [2]; [8]): 0.1 to 1 µM
SMILES: NC1=N[C@]2(CO1)c1cc(OC3CCC3)ccc1Oc1ccc(-c3cccnc3)cc12 [compound 195]

- IC50 (BACE1 [1]; read-out: BACE1 FRET assay): 0.1 to 1 µM
- IC50 (BACE1 [2]; read-out: HEK cell assay): 0.1 to 1 µM
SMILES: CC(C)(C)OC(=O)Cc1ccc2c(c1)[C@]1(COC(N)=N1)c1cc(-c3cncnc3)ccc1O2 [compound 765]

- IC50 (BACE1 [1]; read-out: BACE1 FRET assay): < 0.1 µM
- IC50 (BACE1 [2]; [9]): < 0.1 µM
SMILES: COC1CCN(c2ccc3c(c2)[C@]2(COC(N)=N2)c2cc(-c4cccnc4)ccc2O3)CC1 [compound 464]

- IC50 (BACE1 [1]; [10]): < 0.1 µM
- IC50 (BACE1 [2]; [11]): 1 to 5 µM
SMILES: COc1ncccc1-c1ccc2c(c1)[C@@]1(COC(N)=N1)c1cc(OCC(C)(C)C)ccc1O2 [Example 77, (4S)-2′-(2,2-dimethylpropoxy)-7′-(2-methoxy-3-pyridinyl)spiro[1,3-oxazole-4,9′-xanthen]-2-amine]

- IC50 (BACE1 [1]; read-out: BACE1 FRET assay): 0.1 to 1 µM
- IC50 (BACE1 [2]; read-out: HEK cell assay): 0.1 to 1 µM
SMILES: Cc1ccc(-c2ccc3c(c2)[C@]2(COC(N)=N2)c2cc(OCC(C)(C)C)ccc2O3)cn1 [compound 786]

- IC50 (BACE1 [1]; [10]): < 0.1 µM
- IC50 (BACE1 [2]; [11]): 1 to 5 µM
SMILES: CC(C)(C)COc1ccc2c(c1)[C@@]1(COC(N)=N1)c1cc(-c3cc(Cl)ccc3F)cnc1O2 [Example 90, (5S)-3-(5-chloro-2-fluorophenyl)-7-(2,2-dimethylpropoxy)spiro[chromeno[2,3-b]pyridine-5,4′-[1,3]oxazol]-2′-amine]

- IC50 (BACE1 [1]; [7]): < 0.1 µM
- IC50 (BACE1 [2]; [8]): 0.1 to 1 µM
SMILES: CC(C)(C)CC(=O)c1ccc2c(c1)[C@@]1(COC(N)=N1)c1cc(-c3ccc(F)nc3)ccc1O2 [150b]

- IC50 (BACE1 [1]; [3]): 1 to 5 µM
- IC50 (BACE1 [2]; [4]): 1 to 5 µM
SMILES: COc1ccc2c(c1)[C@]1(COC(N)=N1)c1cc(NC(=O)c3ccc(Cl)nc3)ccc1O2 [compound 617]
